Here are results for 9 compounds from ChEMBL document CHEMBL1629585, “Nationwide survey of CTX-M-type extended-spectrum beta-lactamases among Klebsiella pneumoniae isolates in Slovenian hospitals” (2009).

A word on the MIC: it is the lowest concentration found to suppress growth. Usually MIC90 stands for the lowest concentration that inhibits either 90% of growth or 90% of the strains tested, depending on the study. A word on the MIC50: it is the lowest concentration that inhibits either 50% of growth or 50% of the strains tested, depending on the study.

Converted amounts (≈) assume the structure as drawn.

Assay [1] concerns Klebsiella pneumoniae. The assay is described as follows: Antibacterial activity against Klebsiella pneumoniae D expressing CTX-M group 1 beta-lactamase by Etest method. The assay is classed as functional.
Assay [2] deals with Klebsiella pneumoniae. The assay is described as follows: Antibacterial activity against Klebsiella pneumoniae B expressing CTX-M group 1 beta-lactamase by Etest method. Format: functional.
In assay [3] the test system is Klebsiella pneumoniae. The assay is described as follows: Antibacterial activity against Klebsiella pneumoniae expressing CTX-M group 1 beta-lactamase by Etest method. Format: functional.
Assay [4] relates to Klebsiella pneumoniae. As to the kind of experiment: Antibacterial activity against Klebsiella pneumoniae C expressing CTX-M group 1 beta-lactamase by Etest method. The assay is classed as functional.
Assay [5] concerns Klebsiella pneumoniae. The assay is described as follows: Antibacterial activity against Klebsiella pneumoniae A expressing CTX-M group 1 beta-lactamase by Etest method. Format: functional.
Assay [6] has as its system Escherichia coli. As to the kind of experiment: Antibacterial activity against Escherichia coli TrC C expressing Klebsiella pneumoniae C blaCTX-M beta-lactamase by Etest method. The assay is classed as functional.
Assay [7] concerns Escherichia coli. The assay is described as follows: Antibacterial activity against Escherichia coli TrC B expressing Klebsiella pneumoniae B blaCTX-M beta-lactamase by Etest method. The assay is classed as functional.
Assay [8] has as its system Escherichia coli. The assay is described as follows: Antibacterial activity against Escherichia coli TrC A expressing Klebsiella pneumoniae A blaCTX-M beta-lactamase by Etest method. The assay is classed as functional.
Assay [9] has as its system Escherichia coli. As to the kind of experiment: Antibacterial activity against rifampicin resistant Escherichia coli J53-2 by Etest method.
Assay [10] has as its system Klebsiella pneumoniae. As to the kind of experiment: Antibacterial activity against Klebsiella pneumoniae expressing CTX-M group 1 beta-lactamase by Etest method in presence of Tazobactam. Format: functional.
Assay [11] deals with Klebsiella pneumoniae. As to the kind of experiment: Antibacterial activity against Klebsiella pneumoniae D expressing CTX-M group 1 beta-lactamase by Etest method in presence of Tazobactam. The assay is classed as functional.
Assay [12] has as its system Klebsiella pneumoniae. The assay is described as follows: Antibacterial activity against Klebsiella pneumoniae C expressing CTX-M group 1 beta-lactamase by Etest method in presence of Tazobactam. The assay is classed as functional.
Assay [13] concerns Klebsiella pneumoniae. As to the kind of experiment: Antibacterial activity against Klebsiella pneumoniae B expressing CTX-M group 1 beta-lactamase by Etest method in presence of Tazobactam. Format: functional.
For assay [14], the system named is Klebsiella pneumoniae. As to the kind of experiment: Antibacterial activity against Klebsiella pneumoniae A expressing CTX-M group 1 beta-lactamase by Etest method in presence of Tazobactam. The assay is classed as functional.

In the assay with Klebsiella pneumoniae [1], `CO/N=C(\C(=O)N[C@@H]1C(=O)N2C(C(=O)[O-])=C(C[N+]3(C)CCCC3)CS[C@H]12)c1csc(N)n1` returned a minimal inhibitory concentration (MIC) of 32 µg/mL (≈ 66.6 µM) and an MIC90 above 256 µg/mL. Besides, in the assay on Klebsiella pneumoniae [2], the lowest concentration to inhibit growth (MIC) was 16 µg/mL (≈ 33.3 µM), the MIC50 amounted to 16 µg/mL (≈ 33.3 µM) and the MIC90 was 48 µg/mL (≈ 99.9 µM).
`NCC[C@H](O)C(=O)N[C@@H]1C[C@H](N)[C@@H](O[C@H]2O[C@H](CN)[C@@H](O)[C@H](O)[C@H]2O)[C@H](O)[C@H]1O[C@H]1O[C@H](CO)[C@@H](O)[C@H](N)[C@H]1O` [AMIKACIN]: the MIC against Klebsiella pneumoniae [3] turned out to be 2 µg/mL (≈ 3.42 µM); in the assay with Klebsiella pneumoniae [1] it was 2 µg/mL (≈ 3.42 µM); against Klebsiella pneumoniae [2] it was 4 µg/mL (≈ 6.83 µM); against Klebsiella pneumoniae [4], 1.5 µg/mL (≈ 2.56 µM); in the assay on Klebsiella pneumoniae [5] it was 2 µg/mL (≈ 3.42 µM); in the assay with Escherichia coli [6], 4 µg/mL (≈ 6.83 µM). In addition, the minimal inhibitory concentration (MIC) in the assay with Escherichia coli [7] was 4 µg/mL (≈ 6.83 µM); in the assay on Escherichia coli [8], 2 µg/mL (≈ 3.42 µM); against Escherichia coli [9] it was 1 µg/mL (≈ 1.71 µM). For the same compound, the MIC50 against Klebsiella pneumoniae [3] is 16 µg/mL (≈ 27.3 µM); against Klebsiella pneumoniae [1], 6 µg/mL (≈ 10.2 µM); in the assay on Klebsiella pneumoniae [2], 6 µg/mL (≈ 10.2 µM); against Klebsiella pneumoniae [4], 6 µg/mL (≈ 10.2 µM); in the assay on Klebsiella pneumoniae [5], 48 µg/mL (≈ 82 µM). Also, the MIC90 came to 32 µg/mL (≈ 54.6 µM) against Klebsiella pneumoniae [3]; 16 µg/mL (≈ 27.3 µM) in the assay on Klebsiella pneumoniae [1]; 12 µg/mL (≈ 20.5 µM) against Klebsiella pneumoniae [2]; 16 µg/mL (≈ 27.3 µM) with Klebsiella pneumoniae [4]; 96 µg/mL (≈ 164 µM) with Klebsiella pneumoniae [5].
`CC1(C)S[C@@H]2[C@H](NC(=O)[C@H](N)c3ccc(O)cc3)C(=O)N2[C@H]1C(=O)O` [AMOXICILLIN]: the MIC is 8 µg/mL (≈ 21.9 µM) in the assay on Klebsiella pneumoniae [3]; 6 µg/mL (≈ 16.4 µM) against Klebsiella pneumoniae [1]; 12 µg/mL (≈ 32.8 µM) in the assay on Klebsiella pneumoniae [2]; 6 µg/mL (≈ 16.4 µM) in the assay with Klebsiella pneumoniae [4]; 4 µg/mL (≈ 10.9 µM) against Klebsiella pneumoniae [5]. Further, the MIC50 in the assay on Klebsiella pneumoniae [3] stood at 16 µg/mL (≈ 43.8 µM); with Klebsiella pneumoniae [1] it was 16 µg/mL (≈ 43.8 µM); with Klebsiella pneumoniae [2] it was 16 µg/mL (≈ 43.8 µM); against Klebsiella pneumoniae [4], 16 µg/mL (≈ 43.8 µM); with Klebsiella pneumoniae [5], 8 µg/mL (≈ 21.9 µM). Moreover, the MIC90 against Klebsiella pneumoniae [3] was above 256 µg/mL; in the assay with Klebsiella pneumoniae [1] it was 16 µg/mL (≈ 43.8 µM); with Klebsiella pneumoniae [2], 16 µg/mL (≈ 43.8 µM); against Klebsiella pneumoniae [4], 64 µg/mL (≈ 175 µM); in the assay with Klebsiella pneumoniae [5], 8 µg/mL (≈ 21.9 µM).
As to `CO[C@@]1(NC(=O)Cc2cccs2)C(=O)N2C(C(=O)O)=C(COC(N)=O)CS[C@@H]21` [CEFOXITIN], the MIC in the assay with Klebsiella pneumoniae [3] was 1.5 µg/mL (≈ 3.51 µM); against Klebsiella pneumoniae [1], 3 µg/mL (≈ 7.02 µM); in the assay on Klebsiella pneumoniae [2], 8 µg/mL (≈ 18.7 µM); in the assay on Klebsiella pneumoniae [4], 8 µg/mL (≈ 18.7 µM); in the assay with Klebsiella pneumoniae [5] it was 3 µg/mL (≈ 7.02 µM); in the assay with Escherichia coli [6], 8 µg/mL (≈ 18.7 µM). Moreover, the figures for the MIC with Escherichia coli [7], with Escherichia coli [8] and against Escherichia coli [9] were 8 µg/mL (≈ 18.7 µM), 16 µg/mL (≈ 37.4 µM) and 8 µg/mL (≈ 18.7 µM), respectively. Further, the MIC50 against Klebsiella pneumoniae [3] worked out at 3 µg/mL (≈ 7.02 µM); in the assay with Klebsiella pneumoniae [1], 4 µg/mL (≈ 9.36 µM); against Klebsiella pneumoniae [2], 8 µg/mL (≈ 18.7 µM); with Klebsiella pneumoniae [4], 12 µg/mL (≈ 28.1 µM); against Klebsiella pneumoniae [5], 4 µg/mL (≈ 9.36 µM). Besides, the MIC90 is 48 µg/mL (≈ 112 µM) against Klebsiella pneumoniae [3]; 16 µg/mL (≈ 37.4 µM) against Klebsiella pneumoniae [1]; 16 µg/mL (≈ 37.4 µM) in the assay on Klebsiella pneumoniae [2]; 48 µg/mL (≈ 112 µM) against Klebsiella pneumoniae [4]; 24 µg/mL (≈ 56.1 µM) in the assay with Klebsiella pneumoniae [5].
`O=C(O)c1cn(C2CC2)c2cc(N3CCNCC3)c(F)cc2c1=O` [CIPROFLOXACIN]: the MIC is 0.032 µg/mL (≈ 0.0966 µM) in the assay on Klebsiella pneumoniae [3]; 0.38 µg/mL (≈ 1.15 µM) in the assay with Klebsiella pneumoniae [5]; at most 0.125 µg/mL against Escherichia coli [6]; at most 0.125 µg/mL in the assay on Escherichia coli [7]; at most 0.125 µg/mL in the assay with Escherichia coli [8]; at most 0.125 µg/mL against Escherichia coli [9]. Moreover, the MIC50 was 16 µg/mL (≈ 48.3 µM) with Klebsiella pneumoniae [3]; above 32 µg/mL with Klebsiella pneumoniae [1]; above 32 µg/mL against Klebsiella pneumoniae [2]; above 32 µg/mL against Klebsiella pneumoniae [4]; 1 µg/mL (≈ 3.02 µM) against Klebsiella pneumoniae [5]. The MIC90 is above 32 µg/mL in the assay with Klebsiella pneumoniae [3]; above 32 µg/mL with Klebsiella pneumoniae [1]; above 32 µg/mL against Klebsiella pneumoniae [2]; above 32 µg/mL against Klebsiella pneumoniae [4]; 6 µg/mL (≈ 18.1 µM) against Klebsiella pneumoniae [5].
Regarding `C[C@@H](O)[C@H]1C(=O)N2C(C(=O)O)=C(SCCNC=N)C[C@H]12` [IMIPENEM ANHYDROUS], the MIC against Klebsiella pneumoniae [3] was found to be 0.19 µg/mL (≈ 0.635 µM); in the assay on Klebsiella pneumoniae [1] it was 0.19 µg/mL (≈ 0.635 µM); with Klebsiella pneumoniae [2], 0.125 µg/mL (≈ 0.418 µM); in the assay with Klebsiella pneumoniae [4], 0.19 µg/mL (≈ 0.635 µM); in the assay on Klebsiella pneumoniae [5] it was 0.19 µg/mL (≈ 0.635 µM). The MIC50 with Klebsiella pneumoniae [3] was 0.25 µg/mL (≈ 0.835 µM); in the assay with Klebsiella pneumoniae [1] it was 0.25 µg/mL (≈ 0.835 µM); against Klebsiella pneumoniae [2], 0.19 µg/mL (≈ 0.635 µM); in the assay on Klebsiella pneumoniae [4], 0.19 µg/mL (≈ 0.635 µM); with Klebsiella pneumoniae [5], 0.25 µg/mL (≈ 0.835 µM). The MIC90 in the assay with Klebsiella pneumoniae [3] was 0.5 µg/mL (≈ 1.67 µM); with Klebsiella pneumoniae [1], 0.25 µg/mL (≈ 0.835 µM); with Klebsiella pneumoniae [2], 0.19 µg/mL (≈ 0.635 µM); in the assay on Klebsiella pneumoniae [4], 0.38 µg/mL (≈ 1.27 µM); against Klebsiella pneumoniae [5], 0.38 µg/mL (≈ 1.27 µM).
Consider `CCN1CCN(C(=O)N[C@@H](C(=O)N[C@@H]2C(=O)N3[C@@H]2SC(C)(C)[C@@H]3C(=O)O)c2ccccc2)C(=O)C1=O` [PIPERACILLIN], for which the MIC is above 64 µg/mL with Escherichia coli [6]; above 64 µg/mL in the assay on Escherichia coli [7]; above 64 µg/mL against Escherichia coli [8]; 4 µg/mL (≈ 7.73 µM) against Escherichia coli [9]; 3 µg/mL in the assay on Klebsiella pneumoniae [10]; 4 µg/mL in the assay on Klebsiella pneumoniae [11]. The MIC with Klebsiella pneumoniae [12] was determined as 3 µg/mL; with Klebsiella pneumoniae [13], 32 µg/mL; in the assay on Klebsiella pneumoniae [14] it was 2 µg/mL. In addition, the MIC50 in the assay on Klebsiella pneumoniae [10] was 12 µg/mL; in the assay on Klebsiella pneumoniae [11], 12 µg/mL; with Klebsiella pneumoniae [12], above 256 µg/mL; in the assay with Klebsiella pneumoniae [13] it was 64 µg/mL; in the assay on Klebsiella pneumoniae [14] it was 3 µg/mL. Also, the MIC90 was above 256 µg/mL with Klebsiella pneumoniae [10]; 24 µg/mL in the assay on Klebsiella pneumoniae [11]; above 256 µg/mL with Klebsiella pneumoniae [12]; above 256 µg/mL in the assay with Klebsiella pneumoniae [13]; 12 µg/mL with Klebsiella pneumoniae [14].
With `NC[C@H]1O[C@H](O[C@H]2[C@H](O)[C@@H](O[C@H]3O[C@H](CO)[C@@H](O)[C@H](N)[C@H]3O)[C@H](N)C[C@@H]2N)[C@H](N)C[C@@H]1O` [TOBRAMYCIN], the MIC against Klebsiella pneumoniae [2] was determined as 32 µg/mL (≈ 68.4 µM); against Klebsiella pneumoniae [4], 32 µg/mL (≈ 68.4 µM); against Klebsiella pneumoniae [5], 32 µg/mL (≈ 68.4 µM); against Escherichia coli [6], 16 µg/mL (≈ 34.2 µM); with Escherichia coli [7], 32 µg/mL (≈ 68.4 µM); with Escherichia coli [8], 32 µg/mL (≈ 68.4 µM). Besides, the MIC with Escherichia coli [9] came out at 1 µg/mL (≈ 2.14 µM).
GENTAMICIN: the MIC50 in the assay with Klebsiella pneumoniae [3] stood at 64 µg/mL; against Klebsiella pneumoniae [4] it was 128 µg/mL. The MIC90 in the assay on Klebsiella pneumoniae [3] and against Klebsiella pneumoniae [4] was above 256 µg/mL throughout. In addition, the MIC with Escherichia coli [6] came to 16 µg/mL; in the assay with Escherichia coli [7] it was 32 µg/mL; in the assay with Escherichia coli [8] it was 4 µg/mL.
